This is an account of results in patent publication US4307194A, “Inhibitors, obtained from bacilli, for glycoside hydrolases” (Bayer Aktiengesellschaft, priority 1976, dated 1981).

The target of assay [1] is T1, saccharase from swine small intestine mucosa (Sus scrofa, UniProt P56729).
T1 construct: sucrase subunit cut from the sucrase-isomaltase precursor
The experiment in a line: Saccharase test (saccharase inhibitor units, SIU). The settings on record: solid product. In kind it is biochemical.
Description: A saccharase inhibitor unit (SIU) is defined as the amount of inhibitor which inhibits two saccharase units to the extent of 50%. A saccharase unit (SU) is the amount of enzyme which, under the test conditions indicated below, splits 1 μmol of sucrose into glucose and fructose in one minute. The μmols of glucose formed are determined quantitatively with the aid of the glucose oxidase reaction under conditions under which further splitting of sucrose by saccharase no longer takes place. In order to carry out the test, 1-20 μg of inhibitor, or 1-20 μl of the solution to be tested, are added to 0.05 ml of saccharase solution adjusted to a content of 0.12 SU and the mixture is made up to 0.1 ml with 0.1 M sodium maleate buffer of pH 6.0. Suitably, a solubilised saccharase from swine small intestine mucosa according to B. Borgstrom, A. Dahlquist, Acta Chem. Scand. […] The mixture is equilibrated at 35° C. for 10 minutes and 0.1 ml of a 0.05 M sucrose solution in 0.1 M sodium maleate buffer of pH 6.0, prewarmed to 35° C., is then added. The mixture is incubated at 35° C. for 20 minutes and the saccharase reaction is stopped by adding 1 ml of glucose oxidase reagent and the mixture is incubated for a further 30 minutes at 35° C. […] 1 ml of 50% strength H2 SO4 is then added and the mixture is measured at 545 nm against a corresponding blank value. […]

In a further assay the test system is microbial α-glucosidases. As to conditions: T. NIWA et al. Agr. Biol. Chem. 34, 966; cited from earlier work.

T1 sequence (P56729 with tags, fused parts or gaps): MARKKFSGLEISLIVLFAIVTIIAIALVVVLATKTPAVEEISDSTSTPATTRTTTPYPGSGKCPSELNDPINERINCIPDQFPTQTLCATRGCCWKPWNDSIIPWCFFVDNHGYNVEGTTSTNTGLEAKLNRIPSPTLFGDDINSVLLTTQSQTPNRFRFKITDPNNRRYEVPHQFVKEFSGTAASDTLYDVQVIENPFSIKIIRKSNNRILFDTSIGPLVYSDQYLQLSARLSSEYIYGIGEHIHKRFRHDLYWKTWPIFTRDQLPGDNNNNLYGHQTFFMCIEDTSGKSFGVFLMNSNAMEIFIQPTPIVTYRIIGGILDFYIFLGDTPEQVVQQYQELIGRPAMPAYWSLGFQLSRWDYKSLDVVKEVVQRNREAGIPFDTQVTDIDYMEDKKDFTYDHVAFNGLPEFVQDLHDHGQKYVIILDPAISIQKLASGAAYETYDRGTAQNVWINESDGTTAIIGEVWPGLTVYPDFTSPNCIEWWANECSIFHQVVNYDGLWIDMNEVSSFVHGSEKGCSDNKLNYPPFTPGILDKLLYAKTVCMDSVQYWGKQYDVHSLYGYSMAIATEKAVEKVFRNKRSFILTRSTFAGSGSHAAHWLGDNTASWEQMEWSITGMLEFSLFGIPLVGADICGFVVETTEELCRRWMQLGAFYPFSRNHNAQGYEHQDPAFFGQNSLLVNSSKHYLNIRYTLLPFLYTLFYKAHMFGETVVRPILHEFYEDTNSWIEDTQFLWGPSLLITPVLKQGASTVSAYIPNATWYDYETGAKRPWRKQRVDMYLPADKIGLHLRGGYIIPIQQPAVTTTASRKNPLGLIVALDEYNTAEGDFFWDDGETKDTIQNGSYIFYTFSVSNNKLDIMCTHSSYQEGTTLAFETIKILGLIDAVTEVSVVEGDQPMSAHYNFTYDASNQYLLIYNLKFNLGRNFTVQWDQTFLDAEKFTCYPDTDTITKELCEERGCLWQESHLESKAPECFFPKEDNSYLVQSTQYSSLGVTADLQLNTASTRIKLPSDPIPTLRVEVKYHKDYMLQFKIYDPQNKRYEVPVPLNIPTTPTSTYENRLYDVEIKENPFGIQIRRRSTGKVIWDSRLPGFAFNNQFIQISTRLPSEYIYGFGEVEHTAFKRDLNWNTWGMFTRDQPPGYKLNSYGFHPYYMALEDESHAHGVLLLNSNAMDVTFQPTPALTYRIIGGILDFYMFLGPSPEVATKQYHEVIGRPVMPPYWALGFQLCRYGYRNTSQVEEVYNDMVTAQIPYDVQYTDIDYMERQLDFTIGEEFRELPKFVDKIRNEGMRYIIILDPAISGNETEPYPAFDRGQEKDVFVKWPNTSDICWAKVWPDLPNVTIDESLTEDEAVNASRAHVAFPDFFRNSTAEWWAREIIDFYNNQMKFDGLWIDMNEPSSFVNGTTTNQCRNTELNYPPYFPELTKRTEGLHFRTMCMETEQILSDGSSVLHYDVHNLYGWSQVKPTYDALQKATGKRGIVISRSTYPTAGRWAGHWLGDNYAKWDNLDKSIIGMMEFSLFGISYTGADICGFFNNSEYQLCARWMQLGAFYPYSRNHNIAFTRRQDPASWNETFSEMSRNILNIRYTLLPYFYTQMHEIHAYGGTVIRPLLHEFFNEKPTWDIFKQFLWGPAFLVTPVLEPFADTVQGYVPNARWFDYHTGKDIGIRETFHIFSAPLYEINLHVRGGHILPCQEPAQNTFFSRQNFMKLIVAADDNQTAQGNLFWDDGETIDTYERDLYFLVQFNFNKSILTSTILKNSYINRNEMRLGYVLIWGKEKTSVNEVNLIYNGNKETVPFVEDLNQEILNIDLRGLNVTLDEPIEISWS

As to `OC[C@H]1NC[C@H](O)[C@@H](O)[C@@H]1O` [Example 34, 1-desoxynojirimycin], the specific saccharase-inhibitory activity in assay [1] is recorded as 540,000 SIU/g.
Take `OC[C@H]1NC(O)[C@H](O)[C@@H](O)[C@@H]1O` (some centres unmarked) [nojirimycin]: the “inhibition of microbial α-glucosidases” value with microbial α-glucosidases is recorded as “inhibits”.
